The results in this text go back to ChEMBL document CHEMBL2034935, “Discovery of a Novel Series of CRTH2 (DP2) Receptor Antagonists Devoid of Carboxylic Acids” (ACS Med Chem Lett, 2011).

The target in series [1] is T1, Prostaglandin D2 receptor 2 (Homo sapiens, UniProt Q9Y5Y4).
T1 sequence (Q9Y5Y4 whole entry): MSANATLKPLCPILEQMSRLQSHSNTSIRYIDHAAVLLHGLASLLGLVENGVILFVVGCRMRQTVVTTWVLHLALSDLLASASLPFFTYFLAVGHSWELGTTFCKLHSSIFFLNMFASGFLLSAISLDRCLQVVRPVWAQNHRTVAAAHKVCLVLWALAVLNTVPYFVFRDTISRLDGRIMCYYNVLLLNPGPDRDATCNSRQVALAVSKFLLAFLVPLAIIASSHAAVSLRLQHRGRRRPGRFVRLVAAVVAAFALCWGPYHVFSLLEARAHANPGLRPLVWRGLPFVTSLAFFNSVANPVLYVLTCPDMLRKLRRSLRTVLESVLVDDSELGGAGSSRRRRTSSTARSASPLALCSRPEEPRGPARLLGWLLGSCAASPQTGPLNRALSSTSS
As to the kind of experiment: Displacement of [3HPGD2 from human CRTH2 receptor expressed in CHO cell membrane after 90 mins by scintillation proximity assay. It is filed as cell membranes. A general note: In a scintillation proximity assay essentially only radioactivity close to the scintillant gives light.

The target of series [2] is T2, Cytochrome P450 1A2 (Homo sapiens, UniProt P05177).
T2 sequence (P05177 whole entry): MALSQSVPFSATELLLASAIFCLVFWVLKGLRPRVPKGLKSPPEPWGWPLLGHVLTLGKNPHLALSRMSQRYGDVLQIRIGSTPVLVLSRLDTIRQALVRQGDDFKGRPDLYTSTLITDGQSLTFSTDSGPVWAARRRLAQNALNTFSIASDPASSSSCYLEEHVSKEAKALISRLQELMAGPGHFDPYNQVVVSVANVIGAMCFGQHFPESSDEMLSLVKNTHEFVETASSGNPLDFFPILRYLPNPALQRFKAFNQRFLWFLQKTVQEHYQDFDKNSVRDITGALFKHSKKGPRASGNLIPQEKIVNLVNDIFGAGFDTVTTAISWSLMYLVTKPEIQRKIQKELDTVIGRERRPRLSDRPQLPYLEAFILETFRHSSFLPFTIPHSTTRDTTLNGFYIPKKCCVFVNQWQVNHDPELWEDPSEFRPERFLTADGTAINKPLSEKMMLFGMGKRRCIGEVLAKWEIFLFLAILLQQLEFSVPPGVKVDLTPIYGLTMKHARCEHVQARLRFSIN
As to the kind of experiment: Inhibition of human recombinant CYP1A2 incubated for 15 mins prior to substrate addition measured after 30 mins by spectrophotometry. It is filed as ADME.

The target in series [3] is T3, Cytochrome P450 2B6 (Homo sapiens, UniProt P20813).
T3 sequence (P20813 whole entry): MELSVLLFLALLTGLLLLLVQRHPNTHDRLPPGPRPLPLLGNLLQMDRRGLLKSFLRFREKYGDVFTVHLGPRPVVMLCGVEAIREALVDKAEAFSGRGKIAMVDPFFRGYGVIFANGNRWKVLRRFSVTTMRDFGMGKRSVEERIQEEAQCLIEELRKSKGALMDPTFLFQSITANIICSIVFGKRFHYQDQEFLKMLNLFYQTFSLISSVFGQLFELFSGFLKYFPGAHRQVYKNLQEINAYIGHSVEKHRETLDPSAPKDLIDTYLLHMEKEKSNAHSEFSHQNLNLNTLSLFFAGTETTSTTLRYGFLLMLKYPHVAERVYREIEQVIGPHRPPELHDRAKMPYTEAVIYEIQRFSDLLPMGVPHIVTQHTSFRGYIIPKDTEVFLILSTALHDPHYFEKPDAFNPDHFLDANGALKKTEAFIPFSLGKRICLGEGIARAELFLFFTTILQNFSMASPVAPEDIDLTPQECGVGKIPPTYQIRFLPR
As to the kind of experiment: Inhibition of human recombinant CYP2B6 incubated for 15 mins prior to substrate addition measured after 30 mins by spectrophotometry. The format is ADME.

Series [4] concerns the target Cytochrome P450 3A4 (Homo sapiens, UniProt P08684). As to the kind of experiment: Inhibition of human recombinant CYP3A4 incubated for 15 mins prior to substrate addition measured after 30 mins by spectrophotometry. It is filed as ADME.
The target in series [5] is Cytochrome P450 2D6 (Homo sapiens, UniProt P10635). As to the kind of experiment: Inhibition of human recombinant CYP2D6 incubated for 15 mins prior to substrate addition measured after 30 mins by spectrophotometry. The format is ADME.
Chain of Cytochrome P450 2D6 (P10635 whole entry): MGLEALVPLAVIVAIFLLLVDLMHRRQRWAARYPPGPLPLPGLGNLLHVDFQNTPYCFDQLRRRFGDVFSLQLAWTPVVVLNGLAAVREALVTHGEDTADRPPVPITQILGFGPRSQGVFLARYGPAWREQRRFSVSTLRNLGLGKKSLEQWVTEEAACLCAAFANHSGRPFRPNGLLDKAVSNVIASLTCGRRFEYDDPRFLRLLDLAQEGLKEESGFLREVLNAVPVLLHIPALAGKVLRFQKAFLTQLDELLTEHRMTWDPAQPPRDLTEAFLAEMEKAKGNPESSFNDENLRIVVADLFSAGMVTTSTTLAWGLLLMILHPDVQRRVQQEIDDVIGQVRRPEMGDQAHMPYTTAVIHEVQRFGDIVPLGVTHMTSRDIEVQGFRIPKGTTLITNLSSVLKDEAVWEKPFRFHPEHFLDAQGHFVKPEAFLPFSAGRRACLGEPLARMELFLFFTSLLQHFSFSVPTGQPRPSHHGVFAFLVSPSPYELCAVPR
In series [6] the target is T4, Prostaglandin D2 receptor 2 (Homo sapiens) (UniProt Q9Y5Y4).
T4 sequence (whole entry): T1 sequence (Q9Y5Y4 whole entry)
As to the kind of experiment: Agonist activity at human CRTH2 receptor expressed in CHO cell membrane assessed as induction of [35S]GTPgammaS binding at 20 uM after 30 mins by microbeta scintillation counting relative to PGD2. The format is functional, cell membranes. For orientation: Binding of GTPγS marks nucleotide exchange on a G protein.

Series [7] addresses T1, Prostaglandin D2 receptor 2. As to the kind of experiment: Antagonist activity at human CRTH2 receptor expressed in CHO cell membrane assessed as inhibition of PGD2-induced [35S]GTPgammaS binding after 30 mins by microbeta scintillation counting. It is filed as functional, cell membranes.
Series [8] has as its target T4, Prostaglandin D2 receptor 2 (Homo sapiens). As to the kind of experiment: Antagonist activity at human CRTH2 receptor expressed in CHO cell membrane assessed as inhibition of PGD2-induced [35S]GTPgammaS binding at 2 uM after 30 mins by microbeta scintillation counting relative to control. The format is functional, cell membranes.
Series [9] is described as follows: Intrinsic clearance in human liver microsomes assessed per mg protein at 1 uM up to 45 mins by LC/MS analysis. The format is ADME, Microsome. Conditions: read-out: CLH.
Series [10] in a line: Intrinsic clearance in rat liver microsomes assessed per mg protein at 1 uM up to 45 mins by LC/MS analysis. The format is ADME, Microsome. Conditions: read-out: CLH.
For series [11], the target named is T5, Cytochrome P450 2C8 (Homo sapiens, UniProt P10632).
T5 sequence (P10632 whole entry): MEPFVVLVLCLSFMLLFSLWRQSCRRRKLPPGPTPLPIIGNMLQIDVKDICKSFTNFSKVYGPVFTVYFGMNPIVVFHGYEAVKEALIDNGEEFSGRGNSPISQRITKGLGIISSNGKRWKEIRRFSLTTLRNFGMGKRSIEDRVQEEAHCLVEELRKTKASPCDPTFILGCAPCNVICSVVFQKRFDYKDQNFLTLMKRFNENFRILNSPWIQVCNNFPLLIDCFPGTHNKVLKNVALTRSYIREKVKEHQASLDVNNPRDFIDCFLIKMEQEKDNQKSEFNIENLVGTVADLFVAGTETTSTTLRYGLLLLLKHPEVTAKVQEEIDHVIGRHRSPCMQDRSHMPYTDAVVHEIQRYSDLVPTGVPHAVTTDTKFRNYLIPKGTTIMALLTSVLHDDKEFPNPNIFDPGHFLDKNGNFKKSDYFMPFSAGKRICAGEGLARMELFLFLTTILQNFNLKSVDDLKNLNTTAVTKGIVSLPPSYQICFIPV
As to the kind of experiment: Inhibition of human recombinant CYP2C8 incubated for 15 mins prior to substrate addition measured after 30 mins by spectrophotometry. It is filed as ADME.

The target of series [12] is Cytochrome P450 2C9 (Homo sapiens, UniProt P11712). As to the kind of experiment: Inhibition of human recombinant CYP2C9 incubated for 15 mins prior to substrate addition measured after 30 mins by spectrophotometry. The format is ADME.
Chain of Cytochrome P450 2C9 (P11712 whole entry): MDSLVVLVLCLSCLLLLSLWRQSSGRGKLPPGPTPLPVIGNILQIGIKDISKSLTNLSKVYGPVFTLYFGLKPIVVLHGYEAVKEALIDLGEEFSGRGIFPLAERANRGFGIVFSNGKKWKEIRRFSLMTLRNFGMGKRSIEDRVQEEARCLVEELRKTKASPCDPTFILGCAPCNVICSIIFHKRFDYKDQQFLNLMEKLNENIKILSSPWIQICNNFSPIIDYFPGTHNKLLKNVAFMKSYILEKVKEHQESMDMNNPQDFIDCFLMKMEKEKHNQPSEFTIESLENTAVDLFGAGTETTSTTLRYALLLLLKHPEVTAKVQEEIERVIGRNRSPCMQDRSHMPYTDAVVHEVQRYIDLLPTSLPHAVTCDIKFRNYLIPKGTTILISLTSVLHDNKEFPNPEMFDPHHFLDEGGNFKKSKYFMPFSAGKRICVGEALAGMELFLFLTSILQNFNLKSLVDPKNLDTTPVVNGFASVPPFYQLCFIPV
The target of series [13] is Cytochrome P450 2C19 (Homo sapiens, UniProt P33261). As to the kind of experiment: Inhibition of human recombinant CYP2C19 incubated for 15 mins prior to substrate addition measured after 30 mins by spectrophotometry. The format is ADME.
Chain of Cytochrome P450 2C19 (P33261 whole entry): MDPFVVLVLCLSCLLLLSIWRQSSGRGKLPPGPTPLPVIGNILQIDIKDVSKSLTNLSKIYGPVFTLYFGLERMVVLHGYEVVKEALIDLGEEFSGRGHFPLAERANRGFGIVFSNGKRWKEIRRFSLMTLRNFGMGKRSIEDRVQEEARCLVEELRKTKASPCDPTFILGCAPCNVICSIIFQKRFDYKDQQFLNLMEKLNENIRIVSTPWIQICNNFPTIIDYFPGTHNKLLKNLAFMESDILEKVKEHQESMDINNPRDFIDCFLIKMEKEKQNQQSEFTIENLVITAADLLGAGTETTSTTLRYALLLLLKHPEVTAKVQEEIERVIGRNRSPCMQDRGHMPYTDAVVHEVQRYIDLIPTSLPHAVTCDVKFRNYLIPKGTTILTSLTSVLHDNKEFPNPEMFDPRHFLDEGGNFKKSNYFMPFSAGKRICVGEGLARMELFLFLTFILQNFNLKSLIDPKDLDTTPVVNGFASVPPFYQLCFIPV
The nature of series [14]: Apparent permeability across human Caco2 cells at 1 uM after 2 hrs by LC/MS analysis. It is filed as ADME, cell-based. Conditions: Caco-2.
Series [15] is described as follows: Half life in C57BL/6 mouse at 1 mg/kg, iv. The format is ADME, organism-based. On the set-up: dose 1 mg/kg, route intravenous. Conditions: in vivo.
A short description of series [16]: Volume of distribution at steady state in C57BL/6 mouse at 1 mg/kg, iv and 5 mg/kg, po. The format is ADME, organism-based. Conditions: in vivo, read-out: Vdss.

Chain of Cytochrome P450 3A4 (P08684 whole entry): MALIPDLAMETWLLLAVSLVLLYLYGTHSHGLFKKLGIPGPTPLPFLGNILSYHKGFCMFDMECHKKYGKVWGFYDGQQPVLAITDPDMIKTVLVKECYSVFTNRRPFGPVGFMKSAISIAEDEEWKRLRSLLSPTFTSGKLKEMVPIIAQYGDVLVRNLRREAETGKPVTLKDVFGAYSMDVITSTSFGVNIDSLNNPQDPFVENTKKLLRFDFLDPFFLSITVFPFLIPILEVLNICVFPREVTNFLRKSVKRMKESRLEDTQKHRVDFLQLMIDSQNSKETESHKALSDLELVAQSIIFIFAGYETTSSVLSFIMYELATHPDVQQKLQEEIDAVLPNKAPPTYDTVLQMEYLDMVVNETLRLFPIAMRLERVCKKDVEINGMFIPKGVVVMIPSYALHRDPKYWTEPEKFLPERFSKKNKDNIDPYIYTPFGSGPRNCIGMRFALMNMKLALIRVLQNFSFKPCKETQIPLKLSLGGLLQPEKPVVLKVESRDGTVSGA

For `CCCCC(=O)N(Cc1cccc(OC(F)(F)F)c1)c1cc(F)cc(-c2nnn[nH]2)c1`, the Ki (as a rule, the equilibrium dissociation constant of an inhibitor or competing ligand from its target) in [1] is 4.5 nM. Further, the IC50 in series [2], in [3], in [4] and in series [5] was more than 10000 nM in each case.

Consider `CCCCC(=O)N(Cc1ccc(OC(F)(F)F)cc1)c1cc(Cl)cc(-c2nnn[nH]2)c1`, for which the Ki in [1] turned out to be 19 nM. Further, the Emax (commonly the maximal effect, on the per cent scale that the assay sets) in series [6] was -10%. The IC50 (usually the concentration that gives 50% inhibition) in [7] is 20 nM; in series [2], more than 10000 nM; in series [3], more than 10000 nM; in series [4], more than 10000 nM; in series [5], more than 10000 nM. In addition, the inhibition (in general, the relative decrease from the control value, in per cent) in [8] is 112%.

In series [1], `CS(=O)(=O)c1ccc(CN(C(=O)C2CCCC2)c2cc(F)cc(-c3nnn[nH]3)c2)cc1` had a Ki of 5.4 nM. For the same molecule, the Emax in [6] is 7%. Also, the IC50 amounted to 57 nM in series [7], 220 nM in [11], 7400 nM in series [12] and 12000 nM in [13]. For the same molecule, the inhibition in [8] came to 80%. The microsomal CLint at 1 µM was 92 µL/min/mg in [9] and 40 µL/min/mg in series [10].

In turn, `CCCCC(=O)N(Cc1ccc(C(F)(F)F)cc1)c1cc(F)cc(-c2nnn[nH]2)c1` came in with a Ki in series [1] of 2.4 nM. The IC50 in [2], in series [3], in series [4] and in series [5] was more than 10000 nM each time.

In turn, `CCC(=O)N(Cc1cccc(C(F)(F)F)c1)c1cccc(-c2nnn[nH]2)c1` had a Ki in series [1] of 220 nM. Also, the half-inhibitory concentration (IC50) in series [2], in series [3], in series [4] and in [5] was more than 10000 nM each time.

In series [1], `CCC(=O)N(Cc1ccc(C(F)(F)F)cc1)c1cccc(-c2nnn[nH]2)c1` had a Ki of 110 nM. The IC50 in series [2], in series [3], in [4] and in series [5] was more than 10000 nM in each case.

With `CCCCC(=O)N(Cc1ccc(OC(F)(F)F)cc1)c1cc(F)cc(-c2nnn[nH]2)c1`, in [1], the Ki stood at 7.7 nM. In addition, the IC50 in series [2], in series [3], in [4] and in [5] was more than 10000 nM throughout.

As to `CCC(=O)N(Cc1ccc(C(F)(F)F)cc1)c1cc(F)cc(-c2nnn[nH]2)c1`, in series [1], affinity was put at a Ki of 5.7 nM. For the same molecule, the Emax in [6] was -8%. Moreover, the concentration for half-maximal inhibition (IC50) was 37 nM in series [7]; more than 10000 nM in series [2]; more than 10000 nM in [3]; more than 10000 nM in series [4]; more than 10000 nM in series [5]; 86 nM in series [11]. The half-maximal inhibitory concentration (IC50) in [12] amounted to 280 nM; in series [13], 38 nM. For the same molecule, the inhibition in series [8] came to 105%. The microsomal CLint at 1 µM in series [9] and in [10] was less than 10 µL/min/mg throughout. Besides, the Papp – broadly, the rate of passage across a membrane or cell layer, normalised by area and donor concentration – at 2 h, 1 µM in [14] amounted to 3 ×10⁻⁶ cm/s. For the same molecule, in series [15], the half-life (in general, the time in which the quantity being followed falls by half) is 1.4 h. Further, the Vd in series [16] was determined as 0.9 L/kg.

In turn, `CS(=O)(=O)c1ccc(CN(C(=O)Cc2ccccc2)c2cc(F)cc(-c3nnn[nH]3)c2)cc1` registered a Ki in series [1] of 0.9 nM. Also, the Emax in [6] is -10%. The IC50 is 3.7 nM in [7], 50 nM in series [11], 290 nM in series [12] and 170 nM in series [13]. Besides, the inhibition in series [8] was determined as 94%. In addition, the results for the microsomal CLint at 1 µM in series [9] and in [10] were 28 µL/min/mg and 20 µL/min/mg, respectively.

Take `CCC(=O)N(Cc1ccc(OC(F)(F)F)cc1)c1cc(F)cc(-c2nnn[nH]2)c1`: the Ki in series [1] was determined as 6.9 nM. In addition, the microsomal CLint at 1 µM in series [9] is less than 10 µL/min/mg; in series [10], 12 µL/min/mg. Besides, the IC50 is more than 10000 nM in series [2]; more than 10000 nM in series [3]; more than 10000 nM in series [4]; more than 10000 nM in [5]; 43 nM in series [11]; 200 nM in [12]. In addition, the IC50 in series [13] came to 51 nM.
